What was measured:
Assay type in all cases: cell-based, Escherichia coli
EKO-35-Pore = experiment: MIC susceptibility profiling, porinated strain; settings: for Fold changes of MICs: EKO-35-Pore compared to EKO-35-Pore (reference); for Minimum inhibitory concentration (MIC), Pore EKO-35: Table 10, with pore; for Minimum inhibitory concentration (MIC), Pore EKO-35 / Minimum inhibitory concentration, EKO-35-Pore: technical duplicate; for Minimum inhibitory concentration, EKO-35-Pore: Table 14A, porinated
Method in brief: (§1)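 E. coli strains carrying a genomically integrated constitutive fhuA ΔC/Δ4L pore were grown 18 h in LB at 37 °C, then diluted 1/2000 in MHB II from OD600 ~1.0. Compounds were tested in duplicate, 2-fold serial titration, for 18 h at 37 °C with shaking. MIC came from OD600 with the pre-incubation background subtracted.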

EKO-35 araC::mexCD Pore = experiment: MIC susceptibility profiling, porinated efflux platform; settings: for Fold changes of MICs: EKO-35 araC::mexCD Pore compared to EKO-35-Pore; for Minimum inhibitory concentration: EKO-35 araC::mexCD Pore, technical duplicate
Method in brief: as §1

EKO-35 araC::acrB Pore = experiment: as above; settings: for Fold changes of MICs: EKO-35 araC::acr-B Pore compared to EKO-35-Pore; for Minimum inhibitory concentration, EKO-35 araC::acrB Pore: Table 14A, porinated, technical duplicate
Method in brief: as §1

EKO-35 araC::emrAB Pore = experiment: as above; settings: for Fold changes of MICs: EKO-35 araC::emrAB Pore compared to EKO-35-Pore; for Minimum inhibitory concentration: EKO-35 araC::emrAB Pore, technical duplicate
Method in brief: as §1

EKO-35 araC::mdtBC Pore = experiment: as above; settings: for Fold changes of MICs: EKO-35 araC::mdtBC Pore compared to EKO-35-Pore; for Minimum inhibitory concentration: EKO-35 araC::mdtBC Pore, technical duplicate
Method in brief: as §1

[1] = system: EKO-35 araC::acrBD408A Pore; experiment: as above; settings: for Fold changes of MICs: EKO-35 araC::acrBD408A Pore compared to EKO-35-Pore; for Minimum inhibitory concentration: EKO-35 araC::acrBD408A Pore, technical duplicate
Method in brief: as §1

EKO-35 araC::acrEF Pore = experiment: as above; settings: for Fold changes of MICs: EKO-35 araC::acrEF Pore compared to EKO-35-Pore; for Minimum inhibitory concentration, EKO-35 araC::acrEF Pore: Table 14A, porinated, technical duplicate
Method in brief: as §1

EKO-35 araC::acrD Pore = experiment: as above; settings: for Fold changes of MICs: EKO-35 araC::acrD Pore compared to EKO-35-Pore; for Minimum inhibitory concentration, EKO-35 araC::acrD Pore: Table 14A, porinated, technical duplicate
Method in brief: as §1

EKO-35 araC::mdtEF Pore = experiment: as above; settings: for Fold changes of MICs: EKO-35 araC::mdtEF Pore compared to EKO-35-Pore; for Minimum inhibitory concentration, EKO-35 araC::mdtEF Pore: Table 14A, porinated, technical duplicate
Method in brief: as §1

EKO-35 araC::emrKY Pore = experiment: as above; settings: for Fold changes of MICs: EKO-35 araC::emrKY Pore compared to EKO-35-Pore; for Minimum inhibitory concentration: EKO-35 araC::emrKY Pore, technical duplicate
Method in brief: as §1

EKO-35 araC::macAB Pore = experiment: as above; settings: for Fold changes of MICs: EKO-35 araC::macAB Pore compared to EKO-35-Pore; for Minimum inhibitory concentration: EKO-35 araC::macAB Pore, technical duplicate
Method in brief: as §1

ΔtolC-Pore = experiment: microbe, parasite or virus in culture; settings: technical duplicate; for Minimum inhibitory concentration (MIC), Pore ΔtolC: Table 10, with pore; for Minimum inhibitory concentration, ΔtolC-Pore: Table 14A, porinated
Method in brief: as §1

wild-type (WT) K-12-Pore = experiment: microbe, parasite or virus in culture; settings: technical duplicate; for Minimum inhibitory concentration (MIC), Pore K-12: Table 10, with pore; for Minimum inhibitory concentration, K-12 (WT)-Pore: Table 14A, porinated
Method in brief: as §1

[2] = system: wild-type E. coli K-12 str. BW25113; experiment: microbe, parasite or virus in culture; settings: technical duplicate; for Minimum inhibitory concentration (MIC), K-12: Table 10, without pore; for Minimum Inhibitory Concentration, K-12: Table 13A, non-porinated
Method in brief: (§2)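 MIC derived from pre-incubation-corrected OD600 after 18 h growth at 37° C. (900 rpm) in MHB II. Inoculum was cells from 18 h LB culture adjusted to OD600 ~1.0 in PBS, then diluted 1/2000; compounds two-fold serially titrated in duplicate, DMSO as solvent control.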

E. coli ΔtolC = experiment: microbe, parasite or virus in culture; settings: technical duplicate; for Minimum inhibitory concentration (MIC), ΔtolC: Table 10, without pore; for Minimum Inhibitory Concentration, ΔtolC: Table 13A, non-porinated
Method in brief: as §2

E. coli EKO-35 = experiment: microbe, parasite or virus in culture; settings: for Fold change of MICs: EKO-35 compared to EKO-35 (reference); for Minimum inhibitory concentration (MIC), EKO-35: Table 10, without pore; for Minimum inhibitory concentration (MIC), EKO-35 / Minimum Inhibitory Concentration, EKO-35: technical duplicate; for Minimum Inhibitory Concentration, EKO-35: Table 13A, non-porinated
Method in brief: as §2

EKO-35 araC::acrEF = experiment: MIC susceptibility profiling, efflux platform; settings: for Fold change of MICs: EKO-35 araC::acrEF compared to EKO-35; for Minimum Inhibitory Concentration, EKO-35 araC::acrEF: Table 13A, non-porinated, technical duplicate
Method in brief: as §2

EKO-35 araC::macAB = experiment: MIC susceptibility profiling, efflux platform; settings: for Fold change of MICs: EKO-35 araC::macAB compared to EKO-35; for Minimum Inhibitory Concentration, EKO-35 araC::macAB: Table 13B, non-porinated, technical duplicate
Method in brief: as §2

EKO-35 araC::emrAB = experiment: MIC susceptibility profiling, efflux platform; settings: for Fold change of MICs: EKO-35 araC::emrAB compared to EKO-35; for Minimum Inhibitory Concentration, EKO-35 araC::emrAB: Table 13B, non-porinated, technical duplicate
Method in brief: as §2

Row | Compound | Fold changes of MICs (EKO-35-Pore) [fold] | Minimum inhibitory concentration (MIC), Pore EKO-35 (EKO-35-Pore) [µg/mL] | Minimum inhibitory concentration, EKO-35-Pore (EKO-35-Pore) [µg/mL] | Fold changes of MICs (EKO-35 araC::mexCD Pore) [fold] | Minimum inhibitory concentration (EKO-35 araC::mexCD Pore) [µg/mL] | Fold changes of MICs (EKO-35 araC::acrB Pore) [fold] | Minimum inhibitory concentration, EKO-35 araC::acrB Pore (EKO-35 araC::acrB Pore) [µg/mL] | Fold changes of MICs (EKO-35 araC::emrAB Pore) [fold] | Minimum inhibitory concentration (EKO-35 araC::emrAB Pore) [µg/mL] | Fold changes of MICs (EKO-35 araC::mdtBC Pore) [fold] | Minimum inhibitory concentration (EKO-35 araC::mdtBC Pore) [µg/mL] | Fold changes of MICs [1] [fold] | Minimum inhibitory concentration [1] [µg/mL] | Fold changes of MICs (EKO-35 araC::acrEF Pore) [fold] | Minimum inhibitory concentration, EKO-35 araC::acrEF Pore (EKO-35 araC::acrEF Pore) [µg/mL] | Fold changes of MICs (EKO-35 araC::acrD Pore) [fold] | Minimum inhibitory concentration, EKO-35 araC::acrD Pore (EKO-35 araC::acrD Pore) [µg/mL] | Fold changes of MICs (EKO-35 araC::mdtEF Pore) [fold] | Minimum inhibitory concentration, EKO-35 araC::mdtEF Pore (EKO-35 araC::mdtEF Pore) [µg/mL] | Fold changes of MICs (EKO-35 araC::emrKY Pore) [fold] | further results
1 | Cn1cc(Br)c(-c2cccc(NC(=O)Nc3ccc(OC(F)(F)F)cc3)c2)n1 [compound 14] | 1 | 320 | 320 | 1 | 320 | 1 | 320 | 1 | 320 | 1 | 320 | 1 | 320 | 1 | 320 | 1 | 320 | 1 | 320 | 1 | Minimum inhibitory concentration (EKO-35 araC::emrKY Pore): 320 µg/mL; Fold changes of MICs (EKO-35 araC::macAB Pore): 1 fold; Minimum inhibitory concentration (EKO-35 araC::macAB Pore): 320 µg/mL; Minimum inhibitory concentration (MIC), Pore ΔtolC (ΔtolC-Pore): 1.25 µg/mL; Minimum inhibitory concentration, ΔtolC-Pore (ΔtolC-Pore): 1.25 µg/mL; Minimum inhibitory concentration (MIC), Pore K-12 (wild-type (WT) K-12-Pore): 320 µg/mL; Minimum inhibitory concentration, K-12 (WT)-Pore (wild-type (WT) K-12-Pore): 320 µg/mL; Minimum inhibitory concentration (MIC), K-12 [2]: 320 µg/mL; Minimum Inhibitory Concentration, K-12 [2]: 320 µg/mL; Minimum inhibitory concentration (MIC), ΔtolC (E. coli ΔtolC): 2.5 µg/mL; Minimum Inhibitory Concentration, ΔtolC (E. coli ΔtolC): 2.5 µg/mL; Fold change of MICs (E. coli EKO-35): 1 fold; Minimum inhibitory concentration (MIC), EKO-35 (E. coli EKO-35): 320 µg/mL; Minimum Inhibitory Concentration, EKO-35 (E. coli EKO-35): 320 µg/mL; Fold change of MICs (EKO-35 araC::acrEF): 1 fold; Minimum Inhibitory Concentration, EKO-35 araC::acrEF (EKO-35 araC::acrEF): 320 µg/mL; Fold change of MICs (EKO-35 araC::macAB): 1 fold; Minimum Inhibitory Concentration, EKO-35 araC::macAB (EKO-35 araC::macAB): 320 µg/mL; Fold change of MICs (EKO-35 araC::emrAB): 1 fold; Minimum Inhibitory Concentration, EKO-35 araC::emrAB (EKO-35 araC::emrAB): 320 µg/mL
2 | N#CC(=NNc1ccc(F)c(Cl)c1)C(=O)c1ccc(Cl)cc1 [compound 15] | 1 | 320 | 320 | 1 | 320 | 1 | 320 | 1 | 320 | 1 | 320 | 1 | 320 | 1 | 320 | 1 | 320 | 1 | 320 | 1 | Minimum inhibitory concentration (EKO-35 araC::emrKY Pore): 320 µg/mL; Fold changes of MICs (EKO-35 araC::macAB Pore): 1 fold; Minimum inhibitory concentration (EKO-35 araC::macAB Pore): 320 µg/mL; Minimum inhibitory concentration (MIC), Pore ΔtolC (ΔtolC-Pore): 0.625 µg/mL; Minimum inhibitory concentration, ΔtolC-Pore (ΔtolC-Pore): 0.625 µg/mL; Minimum inhibitory concentration (MIC), Pore K-12 (wild-type (WT) K-12-Pore): 320 µg/mL; Minimum inhibitory concentration, K-12 (WT)-Pore (wild-type (WT) K-12-Pore): 320 µg/mL; Minimum inhibitory concentration (MIC), K-12 [2]: 320 µg/mL; Minimum Inhibitory Concentration, K-12 [2]: 320 µg/mL; Minimum inhibitory concentration (MIC), ΔtolC (E. coli ΔtolC): 1.25 µg/mL; Minimum Inhibitory Concentration, ΔtolC (E. coli ΔtolC): 1.25 µg/mL; Fold change of MICs (E. coli EKO-35): 1 fold; Minimum inhibitory concentration (MIC), EKO-35 (E. coli EKO-35): 320 µg/mL; Minimum Inhibitory Concentration, EKO-35 (E. coli EKO-35): 320 µg/mL; Fold change of MICs (EKO-35 araC::acrEF): 1 fold; Minimum Inhibitory Concentration, EKO-35 araC::acrEF (EKO-35 araC::acrEF): 320 µg/mL; Fold change of MICs (EKO-35 araC::macAB): 1 fold; Minimum Inhibitory Concentration, EKO-35 araC::macAB (EKO-35 araC::macAB): 320 µg/mL; Fold change of MICs (EKO-35 araC::emrAB): 1 fold; Minimum Inhibitory Concentration, EKO-35 araC::emrAB (EKO-35 araC::emrAB): 320 µg/mL
